Experimental data taken from patent US11208404B2 (PERENNA PHARMACEUTICALS, INC., priority 2017, dated 2021).
Like-named read-outs stand apart in the source and are kept apart here.

Target: ALCAT1 (Homo sapiens (Human), UniProt Q6UWP7)
Assay: In vitro acyltransferase assay for ALCAT1 inhibitors
Type: biochemical
Conditions: for inhibition at 1 µM / % inh @ 1 μM: 1 μM compound; for inhibition at 1 µM / inhibition at 10 µM / % inh @ 1 μM: in vitro enzymatic assay; for inhibition at 10 µM: 10 μM compound; for IC50: ALCAT1 enzyme activity
Source text: The human ALCAT1 protein were expressed in Spodoptera frugiperda (Sf9) insect cells by using a Bac-to-Bac baculovirus expression system (Invitrogen) according to the manufacturer's instruction. High-titer recombinant baculovirus expressing the human ALCAT1 protein was generated by several rounds of viral amplification. The Sf9 cells were typically infected with recombinant baculovirus for 3 days, harvested in ice-cold phosphate-buffered saline (PBS), and homogenized in 20 mm NaCl by going through French press. The total cell lysates were centrifuged at 10,000×g for 1 hours at 4° C. to eliminate the nucleus fraction, followed by ultracentrifugation at 100,000×g to pallet the membrane fraction. The membrane fraction was resuspended in enzymatic buffer that contain 10% glycerol, quantified for protein concentration, aliquoted, and stored at −80° C.
ALCAT1 enzymatic activity was determined by measuring the conversion of monolysocardiolipin (MLCL) to cardiolipin or lysophosphatidylglycerol (LPG) to phosphatidylglycerol (PG) in an enzymatic reaction mixture that contained 50 mm Tris/HCl, pH 7.0, 100 μm lysophospholipids, 25 μm [^14C]acyl-CoA (50 mCi/mmol, American Radiolabeled Chemicals, Inc), and membrane fraction (0.5-2.5 μg) in a total volume of 200 μl. The reaction was incubated at room temperature for 30 min. The lipids were extracted will chloroform, dried, and separated by thin layer chromatography (TLC) with chloroform:hexane:methanol:acetic acid (50:30:10:5, v/v) or chloroform:methanol:water (65:25:4, v/v). After separation, TLC plates were exposed to a Phosphorlmager screen to visualize the radiolabeled products with a Molecular Dynamics Typhoon Scanner (Sunnyvale, Calif.). In some experiments, NBD-CoA was used at 100 μM to replace the [^14C]acyl-CoA in the enzymatic reaction. All quantitative data were expressed as mean±S.E. Statistical analyses for differences between two groups were carried out using a Student's t test.
Compound inhibitors for ALCAT1 enzyme were analyzed by an in vitro enzymatic assay as detailed above. Compound inhibitors were added to the enzymatic mixture at 1-20 μM concentrations before the start of the acyltransferase reaction.
Where multiple measurements were taken this is indicated by a “/” between multiple values.
IC50 values for each compound were analyzed in triplicates, and calculated by GraphPad software.

[1] = triplicates, GraphPad, read-out: IC50

Chain of ALCAT1 (Q6UWP7 whole entry): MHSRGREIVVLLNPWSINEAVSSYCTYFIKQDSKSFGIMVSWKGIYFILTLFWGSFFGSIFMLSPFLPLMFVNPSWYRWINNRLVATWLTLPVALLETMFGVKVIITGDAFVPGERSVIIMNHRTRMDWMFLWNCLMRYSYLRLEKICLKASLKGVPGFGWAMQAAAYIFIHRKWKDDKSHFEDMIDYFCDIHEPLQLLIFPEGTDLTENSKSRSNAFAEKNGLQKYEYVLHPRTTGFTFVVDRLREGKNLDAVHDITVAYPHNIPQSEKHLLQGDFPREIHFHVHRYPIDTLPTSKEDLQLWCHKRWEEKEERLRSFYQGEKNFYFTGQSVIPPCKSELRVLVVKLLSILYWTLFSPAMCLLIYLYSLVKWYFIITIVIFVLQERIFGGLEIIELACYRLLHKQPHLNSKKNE

Compound | inhibition at 1 µM | inhibition at 10 µM | IC50 [1] | % inh @ 1 μM | IC50 (read-out: IC50 values (upper bounds))
CCCOc1ccc(F)cc1C(=O)Nc1cccc(-c2nnc(-c3ccco3)o2)c1 [Compound 126] | 83% | 100% | 110 nM | – | –
O=C(Nc1cccc(-c2nnc(-c3ccco3)o2)n1)c1ccccc1F [Compound 53] | 47% | 90% | – | – | –
O=C(Nc1cccc(-c2nnc(-c3ccco3)o2)c1F)c1ccccc1F [Compound 79, 2-fluoro-N-(2-fluoro-3-(5-(furan-2-yl)-1,3,4-oxadiazol-2-yl)phenyl)benzamide] | 89% | – | 110 nM | – | –
O=C(Nc1cccc(-c2nnc(-c3ccco3)o2)c1)c1ccncc1 [Compound 237] | 35% | – | – | 46% | –
COc1cc(NC(=O)c2ccccc2F)cc(-c2nnc(-c3ccco3)o2)c1 [Compound 133] | 19% | – | – | 17% | –
O=C(Nc1cc(-c2nnc(-c3ccco3)o2)ccc1Br)c1ccccc1F [Compound 25] | – | 56% | – | – | –
O=C(Nc1cccc(-c2nnc(-c3ccco3)o2)c1)c1cc(Br)ccc1OCC(F)(F)F [Compound 226, 5-Bromo-N-(3-(5-(furan-2-yl)-1,3,4-oxadiazol-2-yl)phenyl)-2-(2,2,2-trifluoroethoxy)benzamide] | 100% | – | 60 nM | 99% | –
O=C(Nc1cccc(-c2nnc(-c3ccco3)o2)c1)c1cccc(OCc2ccccc2)c1 [Compound 71] | 51% | 93% | – | – | –
O=C(Nc1cccc(-c2nnc(-c3ccco3)o2)c1)c1cc(Cl)ccc1OCC(F)(F)F [Compound 225, 5-Chloro-N-(3-(5-(furan-2-yl)-1,3,4-oxadiazol-2-yl)phenyl)-2-(2,2,2-trifluoroethoxy)benzamide] | 92% | – | 100 nM | 97% | –
COc1ccc(Br)cc1C(=O)Nc1cccc(-c2nnc(-c3ccco3)o2)c1 [Compound 120, 5-Bromo-N-(3-(5-(furan-2-yl)-1,3,4-oxadiazol-2-yl)phenyl)-2-methoxybenzamide] | 94% | 100% | 38 nM | – | –
O=C(Nc1cccc(-c2nnc(-c3ccco3)o2)c1)c1cccc(Br)c1 [Compound 203] | – | – | 1900 nM | – | –
O=C(Nc1cccc(-c2nnc(-c3ccco3)o2)c1)c1cccc(OC(F)(F)F)c1 [Compound 233] | 68% | – | – | 65% | –
CSc1ccccc1C(=O)Nc1cccc(-c2nnc(-c3ccco3)o2)c1 [Compound 181] | 34% | 68% | – | – | –
O=C(Nc1ccccc1F)c1cccc(-c2nnc(-c3ccco3)o2)c1 [Compound 44, N-(2-fluorophenyl)-3-(5-(furan-2-yl)-1,3,4-oxadiazol-2-yl)benzamide] | 26% | – | 990 nM | – | –
CCc1ccccc1C(=O)Nc1cccc(-c2nnc(-c3ccco3)o2)c1 [Compound 240] | 12% | – | – | 6% | –
O=C(Nc1cccc(-c2nnc(-c3ccsc3)o2)c1)c1ccccc1F [Compound 21] | – | 85% | – | – | –
COc1ccc(C)cc1C(=O)Nc1cccc(-c2nnc(-c3ccco3)o2)c1 [Compound 197, N-(3-(5-(Furan-2-yl)-1,3,4-oxadiazol-2-yl)phenyl)-2-methoxy-5-methylbenzamide] | 80% | 97% | 79 nM | – | –
CCOc1ccc(C)cc1C(=O)Nc1cccc(-c2nnc(-c3ccco3)o2)c1 [Compound 218, 2-Ethoxy-N-(3-(5-(furan-2-yl)-1,3,4-oxadiazol-2-yl)phenyl)-5-methylbenzamide] | 99% | – | 67 nM | 98% | –
O=C(Nc1cccc(-c2nnc(-c3ccco3)o2)c1)c1cc(F)c(F)cc1F [Compound 144] | 73% | 92% | 130 nM | – | –
O=C(Nc1cccc(-c2nnc(-c3ccco3)o2)c1)c1c(F)cccc1Cl [Compound 145] | 9% | 38% | – | – | –
O=C(Nc1cc(-c2nnc(-c3ccco3)o2)ccc1F)c1ccccc1F [Compound 27] | – | 98% | 47 nM | – | –
COc1ccc([N+](=O)[O-])cc1C(=O)Nc1cccc(-c2nnc(-c3ccco3)o2)c1 [Compound 341] | 73% | – | 500 nM | – | –
O=C(Nc1cccc(-c2nnc(-c3ccco3)o2)c1)c1cc(Br)ccc1I [Compound 141] | 65% | 67% | – | – | –

Compound | inhibition at 1 µM | inhibition at 10 µM | IC50 [1] | % inh @ 1 μM | IC50 (read-out: IC50 values (upper bounds))
O=C(Nc1cccc(-c2nnc(-c3ccco3)o2)c1)c1cc(F)cc([N+](=O)[O-])c1 [Compound 338] | 65% | – | – | – | –
COc1ccc(C(F)(F)F)cc1C(=O)Nc1cccc(-c2nnc(-c3ccco3)o2)c1 [Compound 278] | 97% | – | 120 nM | 100% | –
CCOc1ccc(F)cc1C(=O)Nc1cccc(-c2nnc(-c3ccco3)o2)c1 [Compound 125, 2-Ethoxy-5-fluoro-N-(3-(5-(furan-2-yl)-1,3,4-oxadiazol-2-yl)phenyl)benzamide] | 92% | 97% | 67 nM | – | –
COc1ccc(Cl)cc1NC(=O)c1cc(-c2nnc(-c3ccco3)o2)ccc1F [Compound 480, N-(5-chloro-2-methoxyphenyl)-2-fluoro-5-(5-(furan-2-yl)-1,3,4-oxadiazol-2-yl)benzamide] | 96% | – | – | – | –
COc1c(F)cccc1C(=O)Nc1cccc(-c2nnc(-c3ccco3)o2)c1 [Compound 220] | 96% | – | 120 nM | 94% | –
O=C(Nc1cccc(-c2nnc(-c3ccco3)o2)c1)C1CCCCC1 [Compound 98] | 11% | 2% | – | – | –
COc1c(NC(=O)c2ccccc2F)cccc1-c1nnc(-c2ccco2)o1 [Compound 140] | 29% | – | – | – | –
O=C(Nc1cc(Cl)cc(-c2nnc(-c3ccco3)o2)c1)c1ccccc1F [Compound 295] | 37% | – | – | – | –
CC(C)Oc1ccc(Br)cc1C(=O)Nc1cccc(-c2nnc(-c3ccco3)o2)c1 [Compound 477] | 63% | 68% | – | – | –
O=C(Nc1cccc(-c2nnc(-c3ccco3)o2)c1)c1ccccc1OC(F)F [Compound 273] | 97% | – | 120 nM | 96% | –
O=C(Nc1cc(-c2nnc(-c3ccc(Cl)o3)o2)c(F)cc1F)c1ccccc1F [Compound 80] | 22% | – | – | – | –
O=C(Nc1cccc(-c2nnc(-c3ccco3)o2)c1)c1ccc([N+](=O)[O-])cc1 [Compound 85] | 10% | 3% | – | – | –
O=C(Nc1cc(-c2nnc(-c3ccco3)s2)ccc1F)c1ccccc1F [Compound 325] | 63% | – | – | – | –
O=C(Nc1cccc(-c2nnc(-c3ccco3)s2)c1)c1ccccc1F [Compound 135] | 56% | – | – | 62% | –
CCOc1ccccc1C(=O)Nc1cccc(-c2nnc(-c3ccco3)o2)c1 [Compound 174] | 96% | 100% | 110 nM | – | –
O=C(Nc1cccc(-c2nnc(-c3ccco3)o2)c1)c1cc([N+](=O)[O-])ccc1Cl [Compound 337] | 66% | – | 760 nM | – | –
O=C(Nc1ccc(F)c(-c2nnc(-c3ccco3)o2)c1)c1ccccc1F [Compound 28] | – | 51% | – | – | –
CC(=O)Nc1ccccc1C(=O)Nc1cccc(-c2nnc(-c3ccco3)o2)c1 [Compound 172] | 6% | 26% | – | – | –
O=C(Nc1cccc(-c2nnc(-c3cccs3)o2)c1)c1ccccc1F [Compound 15, 2-fluoro-N-(3-(5-(thiophen-2-yl)-1,3,4-oxadiazol-2-yl)phenyl)benzamide] | 20% | – | – | – | –
COc1c(Br)cccc1C(=O)Nc1cccc(-c2nnc(-c3ccco3)o2)c1 [Compound 192, 3-Bromo-N-(3-(5-(furan-2-yl)-1,3,4-oxadiazol-2-yl)phenyl)-2-methoxybenzamide] | 89% | – | 92 nM | 93% | –
O=C(Nc1cccc(-c2nnc(-c3ccco3)o2)c1)c1ccc(C(F)F)cc1 [Compound 10] | – | 2% | – | – | –
CCOc1ccccc1C(=O)Nc1cc(-c2nnc(-c3ccco3)o2)ccc1F [Compound 215, 2-Ethoxy-N-(2-fluoro-5-(5-(furan-2-yl)-1,3,4-oxadiazol-2-yl)phenyl)benzamide] | 100% | – | 26 nM | 100/100% | < 100 nM
O=C(Nc1cccc(-c2nnc(-c3cncs3)o2)c1)c1ccccc1F [Compound 292] | 14% | – | – | 12% | –
